From patent publication US20250228239A1, “MOLECULES HAVING PESTICIDAL UTILITY, AND INTERMEDIATES, COMPOSITIONS, AND PROCESSES, RELATED THERETO” (priority 2024, published 2025) come the findings set out here.

The structures appear in SMILES notation. Like-named read-outs stand apart in the source and are kept apart here.

Common to all, as to format: in vivo
For assay [1], the system named is Beet Armyworm (Spodoptera exigua, LAPHEG). In words: Bioassays on Beet Armyworm (BAW), 128-well diet tray assay. As to conditions: Spodoptera exigua. In outline:
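Mortality of second-instar larvae (1–5/well) on artificial diet treated with 50 μg/cm^2 compound, read after 5–7 days at 25° C.; values are means of eight wells.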

Assay [2] relates to Cabbage Looper (Trichoplusia ni, TRIPNI). In words: Bioassays on Cabbage Looper (CL), 128-well diet tray assay. The note with it: Trichoplusia ni. In outline:
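Percent mortality, averaged across eight replicate wells, after second-instar larvae (1–5 per well) fed for five to seven days on diet dosed at 50 μg/cm^2. Compound was applied in acetone-water 90:10 and dried; trays kept vented at 25° C under 14:10 photoperiod.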

Assay [3] has as its system Green Peach Aphid (Myzus persicae, MYZUPE). Briefly: Bioassays on Green Peach Aphid (GPA), foliar spray on cabbage seedlings. As to conditions: 72 h. Put shortly: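 Percent control (Abbott-corrected versus solvent-sprayed plants) comes from live-aphid counts three days after treatment at about 25° C. Test solution at 200 ppm was sprayed to runoff onto both leaf surfaces of cabbage seedlings infested a day earlier with 20-50 aphids; four replicate pots.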

For assay [4], the system named is Yellow Fever Mosquito (Aedes aegypti, AEDSAE). Put shortly: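 Mortality after 3 days at room temperature is the read-out, scored well by well and converted to a rating. Test molecules came from 4000 ppm stocks in DMSO, further diluted in 90:10 water/acetone, and were exposed to roughly 1-day-old larvae suspended in liver-powder water.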
The mark [5] stands for this setting: Beet Armyworm, rating class, read-out: BAW.
Where [6] appears, read: Cabbage Looper, rating class, read-out: CL.
Where [7] appears, read: Green Peach Aphid, rating class, read-out: GPA.
The mark [8] stands for this setting: Yellow Fever Mosquito, rating class.
The mark [9] stands for this setting: Table ABC: Biological Results, species BAW, read-out: BAW.
[10] abbreviates: Table ABC: Biological Results, species CL, read-out: CL.
The mark [11] stands for this setting: Table ABC: Biological Results, species GPA, read-out: GPA.
Setting [12] is: Table ABC: Biological Results, species YFM.

With `O=C(Nc1ccc(F)c(NC(=O)C(F)(F)F)c1F)c1cc(NC(=O)[C@H]2[C@H](c3ccc(Cl)c(Cl)c3)C2(Cl)Cl)ccc1F` [F1492, 5-((1R,3R)-2,2-Dichloro-3-(3,4-dichlorophenyl)cyclopropane-1-carboxamido)-N-(2,4-difluoro-3-(2,2,2-trifluoroacetamido)phenyl)-2-fluorobenzamide], the pest or weed control at 50 µg/cm2 in assay [1] (setting [5]) and in assay [2] (setting [6]) was 50 to 100% throughout. The pest or weed control at 200 µg/mL in assay [3] (setting [7]) lay in the range of 0 to 80%. Also, in assay [4] (setting [8]), the YFM result is reported as “A (80–100)”.
With `O=C(Nc1ccc(F)c(NC(=O)C2CC(F)(F)C2)c1F)c1cc(NC(=O)[C@H]2[C@H](c3ccc(F)c(C(F)(F)F)c3)C2(Cl)Cl)ccc1Cl` [F1644, 2-Chloro-5-((1R,3R)-2,2-dichloro-3-(4-fluoro-3-(trifluoromethyl)phenyl)cyclopropane-1-carboxamido)-N-(3-(3,3-difluorocyclobutane-1-carboxamido)-2,4-difluorophenyl)benzamide], the pest or weed control at 50 µg/cm2 in assay [1] (setting [5]) and in assay [2] (setting [6]) was 50 to 100% throughout. Further, the pest or weed control at 200 µg/mL in assay [3] (setting [7]) fell in the range of 0 to 80%. In assay [4] (setting [8]), the YFM entry is given as “B (More than 0 – Less than 80)”.
On to `Nc1cc(NC(=O)c2cc(NC(=O)[C@H]3[C@H](c4ccc(F)c(C(F)(F)F)c4)C3(Cl)Cl)ccc2Cl)c(F)c(F)c1F` [F1740, N-(5-Amino-2,3,4-trifluorophenyl)-2-chloro-5-((1R,3R)-2,2-dichloro-3-(4-fluoro-3-(trifluoromethyl)phenyl)cyclopropane-1-carboxamido)benzamide], for which the pest or weed control at 50 µg/cm2 in assay [1] (setting [5]) and in assay [2] (setting [6]) was 50 to 100% throughout. In assay [3] (setting [7]), the pest or weed control at 200 µg/mL lay in the range of 80 to 100%. Further, in assay [4] (setting [8]), the YFM result is recorded as “A (80–100)”.
`CCOC(C)C(=O)Nc1c(F)ccc(NC(=O)c2cc(NC(=O)[C@H]3[C@H](c4ccc(F)c(C(F)(F)F)c4)C3(Cl)Cl)ccc2Cl)c1F` (stereo partly drawn) [F1364, 2-Chloro-5-((1R,3R)-2,2-dichloro-3-(4-fluoro-3-(trifluoromethyl)phenyl)cyclopropane-1-carboxamido)-N-(3-(2-ethoxypropanamido)-2,4-difluorophenyl)benzamide]: the pest or weed control at 50 µg/cm2 in assay [1] (setting [9]) and in assay [2] (setting [10]) was 50 to 100% each time. For the same compound, the pest or weed control at 200 µg/mL in assay [3] (setting [11]) was in the range of 0 to 80%. Moreover, the YFM result in assay [4] (setting [12]) is “A (80–100)”.
`CC(=O)Nc1c(F)cc(F)c(NC(=O)c2cc(NC(=O)[C@H]3[C@H](c4ccc(F)c(Cl)c4)C3(Cl)Cl)ccc2Cl)c1F` [F1627, N-(3-Acetamido-2,4,6-trifluorophenyl)-2-chloro-5-((1R,3R)-2,2-dichloro-3-(3-chloro-4-fluorophenyl)cyclopropane-1-carboxamido)benzamide]: the pest or weed control at 50 µg/cm2 in assay [1] (setting [5]) and in assay [2] (setting [6]) was 50 to 100% throughout. Moreover, in assay [3] (setting [7]), the pest or weed control at 200 µg/mL lay within 80 to 100%. Moreover, the YFM entry in assay [4] (setting [8]) is listed as “A (80–100)”.
In the case of `Nc1ccc(F)c(NC(=O)c2cc(NC(=O)[C@H]3[C@H](c4cc(Cl)c(Cl)c(Cl)c4)C3(Cl)Cl)ccc2Cl)c1F` [F1228, N-(3-Amino-2,6-difluorophenyl)-2-chloro-5-((1R,3R)-2,2-dichloro-3-(3,4,5-trichlorophenyl)cyclopropane-1-carboxamido)benzamide], the pest or weed control at 50 µg/cm2 in assay [1] (setting [9]) and in assay [2] (setting [10]) was 50 to 100% in each case. The pest or weed control at 200 µg/mL in assay [3] (setting [11]) was 0 to 80%. In assay [4] (setting [12]), the YFM result is “A (80–100)”.
On to `CCOC(C)C(=O)Nc1c(F)ccc(NC(=O)c2cc(NC(=O)[C@H]3[C@H](c4cccc(C(F)(F)F)c4)C3(Cl)Cl)ccc2Cl)c1F` (stereo partly drawn) [F1737, 2-Chloro-5-((1R,3R)-2,2-dichloro-3-(3-(trifluoromethyl)phenyl)cyclopropane-1-carboxamido)-N-(3-(2-ethoxypropanamido)-2,4-difluorophenyl)benzamide], for which the pest or weed control at 50 µg/cm2 in assay [1] (setting [5]) and in assay [2] (setting [6]) was 50 to 100% throughout. The pest or weed control at 200 µg/mL in assay [3] (setting [7]) lay within 0 to 80%. For the same compound, the YFM entry in assay [4] (setting [8]) is “A (80–100)”.
Turning to `N#Cc1cc(F)ccc1N(Cc1ccccc1)C(=O)c1cc(NC(=O)[C@H]2[C@H](c3cc(Cl)cc(Cl)c3)C2(Cl)Cl)ccc1Cl` (relative stereo) [F1099, trans-N-Benzyl-2-chloro-N-(2-cyano-4-fluorophenyl)-5-(2,2-dichloro-3-(3,5-dichlorophenyl)cyclopropane-1-carboxamido)benzamide], the pest or weed control at 50 µg/cm2 in assay [1] (setting [9]) and in assay [2] (setting [10]) was 50 to 100% in each case. Besides, the pest or weed control at 200 µg/mL in assay [3] (setting [11]) lay within 0 to 80%. Also, the YFM result in assay [4] (setting [12]) was “A (80–100)”.
Turning to `O=C(CC1CC1)Nc1c(F)ccc(NC(=O)c2cc(NC(=O)[C@H]3[C@H](c4ccc(F)c(Cl)c4)C3(Cl)Cl)ccc2Cl)c1F` [F1702, 2-Chloro-N-(3-(2-cyclopropylacetamido)-2,4-difluorophenyl)-5-((1R,3R)-2,2-dichloro-3-(3-chloro-4-fluorophenyl)cyclopropane-1-carboxamido)benzamide], the pest or weed control at 50 µg/cm2 in assay [1] (setting [5]) and in assay [2] (setting [6]) was 50 to 100% in each case. The pest or weed control at 200 µg/mL in assay [3] (setting [7]) lay within 80 to 100%. Also, in assay [4] (setting [8]), the YFM result is on record as “A (80–100)”.
For the compound `O=C(Nc1ccc(F)c(NC(=O)C(F)(F)C(F)(F)F)c1F)c1cc(NC(=O)[C@H]2[C@H](c3ccc(F)c(Cl)c3)C2(Cl)Cl)ccc1Cl` [F1696, 2-Chloro-5-((1R,3R)-2,2-dichloro-3-(3-chloro-4-fluorophenyl)cyclopropane-1-carboxamido)-N-(2,4-difluoro-3-(2,2,3,3,3-pentafluoropropanamido)phenyl)benzamide], the pest or weed control at 50 µg/cm2 in assay [1] (setting [5]) and in assay [2] (setting [6]) was 50 to 100% each time. Moreover, in assay [3] (setting [7]), the pest or weed control at 200 µg/mL lay within 80 to 100%. The YFM entry in assay [4] (setting [8]) is “A (80–100)”.
On to `CCN(C(=O)c1cc(NC(=O)[C@H]2[C@H](c3cc(Cl)cc(Cl)c3)C2(Cl)Cl)ccc1Cl)c1ccc(F)cc1C#N` (relative stereo) [F1091, trans-2-Chloro-N-(2-cyano-4-fluorophenyl)-5-(2,2-dichloro-3-(3,5-dichlorophenyl)cyclopropane-1-carboxamido)-N-ethylbenzamide], for which the pest or weed control at 50 µg/cm2 in assay [1] (setting [9]) and in assay [2] (setting [10]) was 50 to 100% each time. In addition, the pest or weed control at 200 µg/mL in assay [3] (setting [11]) fell in the range of 0 to 80%. For the same compound, in assay [4] (setting [12]), the YFM entry is “A (80–100)”.
`O=C(Nc1ccc(F)cc1F)c1c(Cl)ccc(NC(=O)[C@H]2[C@H](c3ccc(F)c(Cl)c3)C2(Cl)Cl)c1Cl` (relative stereo) [F1105, trans-2,6-dichloro-3-(2,2-dichloro-3-(3-chloro-4-fluorophenyl)cyclopropane-1-carboxamido)-N-(2,4-difluorophenyl)benzamide]: the pest or weed control at 50 µg/cm2 in assay [1] (setting [9]) and in assay [2] (setting [10]) was 50 to 100% each time. The pest or weed control at 200 µg/mL in assay [3] (setting [11]) fell in the range of 0 to 80%. In assay [4] (setting [12]), the YFM entry was “A (80–100)”.
Regarding `CCCC(=O)Nc1c(F)ccc(NC(=O)c2cc(NC(=O)[C@H]3[C@H](c4ccc(Cl)c(Cl)c4)C3(Cl)Cl)ccc2Cl)c1F` [F1473, N-(3-Butyramido-2,4-difluorophenyl)-2-chloro-5-((1R,3R)-2,2-dichloro-3-(3,4-dichlorophenyl)cyclopropane-1-carboxamido)benzamide], the pest or weed control at 50 µg/cm2 in assay [1] (setting [5]) and in assay [2] (setting [6]) was 50 to 100% in each case. For the same compound, the pest or weed control at 200 µg/mL in assay [3] (setting [7]) fell in the range of 0 to 80%. The YFM result in assay [4] (setting [8]) is “A (80–100)”.
As for `Nc1c(F)ccc(NC(=O)c2cc(NC(=O)[C@H]3[C@H](c4ccc(Cl)c(C(F)(F)F)c4)C3(Cl)Cl)ccc2Cl)c1F` (relative stereo) [F1079, trans-N-(3-Amino-2,4-difluorophenyl)-2-chloro-5-(2,2-dichloro-3-(4-chloro-3-(trifluoromethyl)phenyl)cyclopropane-1-carboxamido)benzamide], the pest or weed control at 50 µg/cm2 in assay [1] (setting [9]) and in assay [2] (setting [10]) was 50 to 100% in each case. For the same compound, in assay [3] (setting [11]), the pest or weed control at 200 µg/mL was 80 to 100%. In assay [4] (setting [12]), the YFM entry was “A (80–100)”.
Take `O=C(CNC(=O)c1cc(NC(=O)[C@H]2[C@H](c3cc(Cl)cc(Cl)c3)C2(Cl)Cl)ccc1Cl)NCC(F)(F)F` (relative stereo) [F2078, trans-2-Chloro-5-(2,2-dichloro-3-(3,5-dichlorophenyl)cyclopropane-1-carboxamido)-N-(2-oxo-2-(2,2,2-trifluoroethylamino)ethyl)benzamide]: the pest or weed control at 50 µg/cm2 in assay [1] (Beet Armyworm, Table ABC / ABC-DP rating, read-out: BAW rating) was 50 to 100%; in assay [2] (Cabbage Looper, Table ABC / ABC-DP rating, read-out: CL rating) it was 50 to 100%. For the same compound, in assay [3] (Green Peach Aphid, Table ABC / ABC-DP rating, read-out: GPA rating), the pest or weed control at 200 µg/mL is 80 to 100%. Also, the YFM rating result in assay [4] (Yellow Fever Mosquito, Table ABC / ABC-DP rating) was “A (80–100)”.
